Reference: US20230146782A1, “DEOXYCHOLIC ACID COMPOUNDS, PHARMACEUTICAL COMPOSITIONS AND USES THEREOF” (priority 2019, published 2023)
“And” between values parts separate entries of the source, which are not always exact repeats. Equal entries are not always repeated. Where two headings read alike, the source gives them in different places.

Legend:
[1] = rat
Method: (§1) Formulation of preparation and dosing: An appropriate amount of the test sample was precisely weighed, and mixed with an appropriate volume of a solvent to obtain a clear solution or a homogeneous suspension. The preparation was administered to animals within 4 hours after formulation. The dosage formulation would be administered by oral gavage in accordance with facility standard operating procedures. The dosage volume would be determined by the body weights of the animals collected on the morning of administering.
(§2) Blood collection: Blood (approx. 0.2 ml per point in time) would be acupunctured each time from the jugular vein of every animal into a polypropylene tube. All blood samples would be transferred to pre-cooled commercial EDTA-K2 test tubes, and kept on wet ice until they were centrifuged.
(§3) Plasma processing: Blood samples would be centrifuged (3200 rpm, 10 min) at approximately 4° C. Plasma was collected separately and transferred to pre-labeled PP tubes in wet ice at each point in time, and then immediately precipitated by ACN (6 IS) (the ratio of plasma: ACN was 1:4). Centrifugation (10 min, 12,000 rpm) was carried out again to obtain a supernatant. The supernatant was quickly frozen on dry ice and kept at −70±10° C. before LC/MS/MS analysis.
(§4) Liver processing: Liver tissues were collected at each point in time, washed twice with pre-cooled deionized water, and dried with filter paper. Liver tissues were immediately homogenized with 10-times volume of a methanol-water solution (1:2, v/v). After homogenization, a portion of liver tissue homogenate (e.g., 200 uL of homogenate) was immediately measured and delivered to an analyst. After precipitated on wet ice, the samples were centrifuged, and a supernatant was collected and stored in a refrigerator at −70±10° C. before LC-MS/MS analysis. From the remaining liver homogenate, 800 uL of the homogenate was measured as a spare.

[2] = Pharmacokinetic test: gavage to rats, active metabolites in plasma and liver by LC-MS/MS; conditions: for half-life: T1/2, rats; for half-life / Tlast: gavage of obeticholic acid
Method: as §1, §2, §3, §4

[3] = clinical treatment of liver diseases such as fatty liver; cited from earlier work
[4] = target: T1, farnesoid X receptor (FXR) (Homo sapiens, UniProt Q96RI1); conditions: reference literature: sandwich-cultured human hepatocytes; cited from earlier work
T1 sequence (Q96RI1 1-486): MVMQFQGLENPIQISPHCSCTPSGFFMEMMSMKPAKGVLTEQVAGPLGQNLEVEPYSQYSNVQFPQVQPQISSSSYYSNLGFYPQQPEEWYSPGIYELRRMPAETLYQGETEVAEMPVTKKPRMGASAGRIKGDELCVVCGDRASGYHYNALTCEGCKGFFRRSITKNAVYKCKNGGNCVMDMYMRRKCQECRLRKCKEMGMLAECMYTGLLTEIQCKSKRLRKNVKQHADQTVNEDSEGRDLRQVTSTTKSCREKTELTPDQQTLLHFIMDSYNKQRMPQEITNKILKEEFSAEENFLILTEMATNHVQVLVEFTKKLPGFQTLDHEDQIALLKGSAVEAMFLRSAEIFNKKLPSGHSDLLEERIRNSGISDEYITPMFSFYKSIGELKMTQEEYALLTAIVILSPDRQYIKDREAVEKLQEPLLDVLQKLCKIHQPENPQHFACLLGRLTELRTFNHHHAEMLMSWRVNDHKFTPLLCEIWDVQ

[5] = in vivo; conditions: rat, po
Method: as §1, §2, §3, §4

[6] = rat, plasma, po, 0.0576 mmol/kg

For `CCOC(=O)[C@@H](N)Cc1ccc(OC(=O)CNC(=O)CC[C@@H](C)[C@H]2CC[C@H]3[C@@H]4[C@H](O)[C@H](CC)C5C[C@H](O)CC[C@]5(C)[C@H]4CC[C@]23C)cc1` (some centres unmarked) [Compound I-6], the “In vivo active compounds in the rats after administration” value (“In vivo active compounds in the rats” for short) [1] was “Compound 4” and the “Total effective drug amount in the liver, compared with OCA” value ([2]; rats, gavage, same molar dosage as OCA) was “significantly increased”.

In the case of `CC[C@@H]1C2C[C@H](O)CC[C@]2(C)[C@H]2CC[C@]3(C)[C@@H]([C@H](C)CCC(=O)NCC(=O)OCc4ccccc4)CC[C@H]3[C@@H]2[C@@H]1O` (some centres unmarked) [Compound I-5], the “In vivo active compounds in the rats” value [1] is reported as “Compound 4”, the “Decrease of AUC of the effective drug in the blood versus direct administration of OCA” value ([1]; in vivo) is reported as 84% and the “Increase of total AUC of Compound 4 in liver and plasma versus Compound 4 directly administered” value ([1]; in vivo) is reported as 28%. The “Total effective drug amount in the liver, compared with OCA” value ([1]; in vivo) was “significantly increased”, the “AUC ratio of the obeticholic acid-glycine conjugate 4 in liver/plasma” value ([1]; in vivo, po) was 18.7 and the “Total AUC of the Compound 4 in the liver and plasma” value ([1]; in vivo, po) was 150442.

For `CC[C@H]1[C@@H](O)[C@@H]2[C@H](CC[C@]3(C)[C@@H]([C@H](C)CCC(=O)O)CC[C@@H]23)[C@@]2(C)CC[C@@H](O)C[C@@H]12` [OCA, 6-α-ethylchenodeoxycholic acid], the Incidence of pruritus [3] is given as 63%, the Incidence of rash [3] is given as “up to 32%” and the Kp ([2]; rat, liver and plasma (AUC ratio), po, 0.0576 mmol/kg) is given as 0.663. It also gave a Cmax ([2]; rat, liver, po, 0.0576 mmol/kg) of 17900 ng/g, a Tmax ([2]; rat, liver, po, 0.0576 mmol/kg) of 0.5 h and a half-life ([2]; rat, liver, po, 0.0576 mmol/kg, OCA in liver) of 3.33 h. The AUC(0-inf) [2, 6] was 50300 ng·h/mL, the AUC(0-t) [2, 6] was 48100 ng·h/mL and the Cmax [2, 6] was 24300 ng/mL. It also gave a Tmax [2, 6] of 0.5 h, a half-life ([2]; rat, plasma, po, 0.0576 mmol/kg, OCA in plasma) of 4.35 h and a Tlast ([2]; rats, 0.0576 mmol/kg, OCA in liver) of 24.0 h. The Tlast ([2]; rats, 0.0576 mmol/kg, OCA in plasma) was 24.0 h.

In the case of `CC[C@H]1[C@@H](O)[C@@H]2[C@H](CC[C@]3(C)[C@@H]([C@H](C)CCC(=O)NCC(=O)O)CC[C@@H]23)[C@@]2(C)CC[C@@H](O)C[C@@H]12` [Compound 4], the “In vivo active compounds in the rats” value [1] is reported as “Compound 4”, the Tlast ([1]; in vivo) is reported as 24.0 h and the AUC0-last ([1]; in vivo, po) is reported as 107187 ng·h/g. For the same compound, the “AUC ratio of the obeticholic acid-glycine conjugate 4 in liver/plasma” value ([1]; in vivo, po) was 14.7, the AUC(0-inf) ([1]; in vivo, po) was 110040 ng·h/g and the “Total AUC in plasma and liver” value ([1]; in vivo, po) was 117503. For the same compound, the “Total AUC of the Compound 4 in the liver and plasma” value ([1]; in vivo, po) was 117503, the “AUC Ratio (liver/plasma)” value ([1]; in vivo, po, 0.0576 mmol/kg) was 42.3 and the “Effect on activation of the farnesoid X receptor (FXR) activity, compared with obeticholic acid” value [4] was “almost the same as the effect of the obeticholic acid”. It also gave a Kp [5] of 14.7, an AUC(0-inf) ([5]; 0.0576 mmol/kg) of 7460 ng·h/mL and an AUC(0-t) ([5]; 0.0576 mmol/kg) of 7310 ng·h/mL. For the same compound, the Cmax ([5]; 0.0576 mmol/kg) was 788 ng/mL and 16800 ng/g, the Tmax ([5]; 0.0576 mmol/kg) was 4 h and the MRT inf ([5]; 0.0576 mmol/kg, MRT0-inf) was 6.1 h. It also gave an MRT last ([5]; 0.0576 mmol/kg, MRT0-last) of 5.56 h and a half-life ([5]; 0.0576 mmol/kg, T1/2) of 4.79 h.

In the case of `CC[C@H]1[C@@H](O)[C@@H]2[C@H](CC[C@]3(C)[C@@H]([C@H](C)CCC(=O)NCCS(=O)(=O)O)CC[C@@H]23)[C@@]2(C)CC[C@@H](O)C[C@@H]12` [OCA-Tau, reference compound], the “Effect on activation of the farnesoid X receptor (FXR) activity, compared with obeticholic acid” value [4] is listed as “almost the same as the effect of the obeticholic acid”.

In the case of `CC[C@@H]1C2C[C@H](O)CC[C@]2(C)[C@H]2CC[C@]3(C)[C@@H]([C@H](C)CCC(=O)NCC(=O)OC(C)C)CC[C@H]3[C@@H]2[C@@H]1O` (some centres unmarked) [Compound I-4], the “In vivo active compounds in the rats” value [1] is reported as “Compound 4” and the “Total effective drug amount in the liver, compared with OCA” value ([1]; in vivo) is reported as “significantly increased”.
